From US20150196612A1, “Anti-enterovirus 71 steroidal saponins and their preparation” (Shanghai University of Traditional Chinese Medicine, priority 2014, published 2015)

Legend:
enterovirus 71 (EV71) = assay: anti-EV71 activity (antiviral bioassay); format: cell-based
[1] = cytotoxicity (CC50) of steroidal saponins
[2] = tested on: respiratory syncytial virus (RSV); conditions: read-out: IC50, inhibitory effects on RSV; cited from earlier work

## NC(=O)c1ncn([C@@H]2O[C@H](CO)[C@@H](O)[C@H]2O)n1 [Ribavirin, ribavirin, reference compound]
Enterovirus 71 (EV71); FIG. 6
  Selective Index (SI): 2.365

## C[C@@H](CC[C@@]1(O)O[C@H]2C[C@H]3[C@@H]4CC[C@@H]5C[C@@H](O[C@@H]6O[C@H](CO)[C@H](O)[C@H](O)[C@H]6O[C@@H]6O[C@H](CO)[C@@H](O)[C@H](O)[C@H]6O)CC[C@]5(C)[C@H]4CC[C@]3(C)[C@H]2[C@@H]1C)CO[C@@H]1O[C@H](CO)[C@@H](O)[C@H](O)[C@H]1O [compound 2, timosaponin B-II]
Enterovirus 71 (EV71); FIG. 6
  Selective Index (SI): 92.876
Enterovirus 71 (EV71); relative to ribavirin
  IC50 as percentage of that of positive control ribavirin: 1%
  selectivity index relative to ribavirin's: more than 40 times
[1]
  CC50: 401000 nM

## CC1=C(CCC(C)CO[C@@H]2O[C@H](CO)[C@@H](O)[C@H](O)[C@H]2O)O[C@H]2CC3C4CCC5CC(O[C@@H]6O[C@H](CO)[C@H](O)[C@H](O)[C@H]6O[C@@H]6O[C@H](CO)[C@@H](O)[C@H](O)[C@H]6O)CC[C@]5(C)C4CC[C@]3(C)[C@@H]12 (stereo partly drawn) [compound 3, anemarsaponin B]
Enterovirus 71 (EV71); FIG. 6
  anti-EV71 activity of compounds (in words): completely inactive

## C[C@H]1CC[C@@]2(OC1)O[C@H]1C[C@H]3[C@@H]4CC[C@@H]5C[C@@H](O[C@@H]6O[C@H](CO)[C@H](O)[C@H](O)[C@H]6O[C@@H]6O[C@H](CO)[C@@H](O)[C@H](O)[C@H]6O)CC[C@]5(C)[C@H]4CC[C@]3(C)[C@H]1[C@@H]2C [compound 7, timosaponin A-III]
Enterovirus 71 (EV71); FIG. 6, read-out: IC50 (50% inhibitory concentration), anti-EV71
  IC50: 1060 nM
[2]
  IC50: 1000 nM

## C[C@H]1CC[C@@]2(OC1)O[C@H]1C[C@H]3[C@@H]4CC[C@@H]5C[C@@H](O)CC[C@]5(C)[C@H]4CC[C@]3(C)[C@H]1[C@@H]2C [compound 8, Sarsasapogenin, reference compound]
Enterovirus 71 (EV71); FIG. 6
  anti-EV71 activity of compounds (in words): completely inactive
